Source: US11331299B2, “Medicinal use of serrulatane diterpenes” (The University of Sydney, priority 2016, dated 2022)
pEC50, pIC50: −log10 of the molar value. Like-named read-outs stand apart in the source and are kept apart here.

What was measured:
EHMT1 (h) = target: T1, EHMT1 (h) (Homo sapiens, UniProt Q9H9B1); assay: Epigenetic enzyme assay, Methyltransferases (MTs); assay type: biochemical
T1 sequence (Q9H9B1 1-1298): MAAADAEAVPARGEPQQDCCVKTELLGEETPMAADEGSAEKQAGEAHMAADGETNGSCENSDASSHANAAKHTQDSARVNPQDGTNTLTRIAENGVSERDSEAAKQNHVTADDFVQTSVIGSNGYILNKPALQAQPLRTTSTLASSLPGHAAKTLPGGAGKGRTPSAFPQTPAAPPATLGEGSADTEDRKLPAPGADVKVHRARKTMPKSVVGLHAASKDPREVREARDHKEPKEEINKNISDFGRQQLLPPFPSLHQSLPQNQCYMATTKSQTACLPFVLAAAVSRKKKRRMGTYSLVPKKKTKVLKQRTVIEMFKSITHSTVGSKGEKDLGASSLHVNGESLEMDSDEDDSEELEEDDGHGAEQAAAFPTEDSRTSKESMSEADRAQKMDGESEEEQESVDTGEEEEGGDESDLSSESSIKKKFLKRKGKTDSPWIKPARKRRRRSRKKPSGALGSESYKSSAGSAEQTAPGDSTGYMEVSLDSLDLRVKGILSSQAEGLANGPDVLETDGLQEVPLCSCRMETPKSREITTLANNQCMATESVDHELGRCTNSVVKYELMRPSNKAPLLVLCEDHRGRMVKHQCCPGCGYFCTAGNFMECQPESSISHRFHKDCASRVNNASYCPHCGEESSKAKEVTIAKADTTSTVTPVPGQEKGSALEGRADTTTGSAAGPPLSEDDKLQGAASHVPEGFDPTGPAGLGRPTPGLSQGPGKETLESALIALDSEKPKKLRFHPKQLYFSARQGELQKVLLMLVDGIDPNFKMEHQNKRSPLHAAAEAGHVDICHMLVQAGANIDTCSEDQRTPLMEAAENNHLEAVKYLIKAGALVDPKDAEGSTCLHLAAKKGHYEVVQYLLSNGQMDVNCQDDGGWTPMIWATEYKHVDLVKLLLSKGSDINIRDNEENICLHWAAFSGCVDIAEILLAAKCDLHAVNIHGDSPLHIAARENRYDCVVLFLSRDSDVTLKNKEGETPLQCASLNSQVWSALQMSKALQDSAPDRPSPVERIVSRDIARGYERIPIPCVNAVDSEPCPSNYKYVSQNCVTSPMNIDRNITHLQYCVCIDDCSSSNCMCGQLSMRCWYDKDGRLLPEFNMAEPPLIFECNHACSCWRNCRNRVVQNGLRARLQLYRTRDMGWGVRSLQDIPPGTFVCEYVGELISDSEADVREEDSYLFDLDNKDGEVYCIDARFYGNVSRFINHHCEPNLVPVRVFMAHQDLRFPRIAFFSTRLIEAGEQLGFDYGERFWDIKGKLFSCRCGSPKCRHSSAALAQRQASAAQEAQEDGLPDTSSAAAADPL

MLL4(h) complex = assay: Epigenetic enzyme assay, Methyltransferases (MTs); assay type: biochemical, human
SUV39H2 (h) = SUV39H2 (h) (Homo sapiens, UniProt Q9H5I1); assay: Epigenetic enzyme assay, Methyltransferases (MTs); assay type: biochemical
Chain of SUV39H2 (h) (Q9H5I1 whole entry): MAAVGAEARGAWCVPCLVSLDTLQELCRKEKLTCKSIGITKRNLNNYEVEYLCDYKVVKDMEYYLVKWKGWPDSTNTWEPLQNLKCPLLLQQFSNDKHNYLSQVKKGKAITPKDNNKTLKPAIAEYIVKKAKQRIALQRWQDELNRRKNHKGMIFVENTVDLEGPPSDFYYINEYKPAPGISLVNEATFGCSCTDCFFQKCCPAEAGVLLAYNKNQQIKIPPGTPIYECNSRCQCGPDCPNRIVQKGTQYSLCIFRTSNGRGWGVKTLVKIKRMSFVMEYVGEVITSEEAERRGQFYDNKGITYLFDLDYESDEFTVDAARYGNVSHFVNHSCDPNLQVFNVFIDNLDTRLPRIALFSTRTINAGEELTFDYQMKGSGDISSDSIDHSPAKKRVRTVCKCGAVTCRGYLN

SW480 = assay: OncoPanel cell proliferation assay (10-day); assay type: cell-based, human; details: Homo sapiens, SW480, Colon; for pEC50: read-out: Cell Count EC50; for GI50: read-out: Cell Count GI50; for pIC50: read-out: Cell Count IC50
IM-9 = assay: OncoPanel cell proliferation assay (10-day); assay type: cell-based, human; details: Homo sapiens, IM-9, Myeloma; for pEC50: read-out: Cell Count EC50; for GI50: read-out: Cell Count GI50; for pIC50: read-out: Cell Count IC50
EP300 (h) bromodomain = target: T2, EP300 (h) bromodomain (Homo sapiens, UniProt Q09472); assay: Epigenetic binding assay, Bromodomain; details: 10 μM; read-out: % Inhibition of Control Specific Binding
T2 construct: Bromodomain
T2 sequence (Q09472 1049-1156 limits assumed): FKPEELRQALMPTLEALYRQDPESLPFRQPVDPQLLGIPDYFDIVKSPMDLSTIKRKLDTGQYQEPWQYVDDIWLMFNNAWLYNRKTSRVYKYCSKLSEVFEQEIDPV

PB1(4) (h) bromodomain = target: T3, PB1(4) (h) bromodomain (Homo sapiens, UniProt Q86U86); assay: Epigenetic binding assay, Bromodomain; details: 10 μM; read-out: % Inhibition of Control Specific Binding
T3 construct: Bromodomain
T3 sequence (Q86U86 518-625 limits assumed): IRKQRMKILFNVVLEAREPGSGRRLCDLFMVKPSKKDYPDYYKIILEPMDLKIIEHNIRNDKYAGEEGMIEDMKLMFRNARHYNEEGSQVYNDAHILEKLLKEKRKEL

SP140 (h) bromodomain = target: T4, SP140 (h) bromodomain (Homo sapiens, UniProt Q13342); assay: Epigenetic binding assay, Bromodomain; details: 10 μM; read-out: % Inhibition of Control Specific Binding
T4 construct: SP140 (h) bromodomain
T4 sequence (Q13342 754-857 limits assumed): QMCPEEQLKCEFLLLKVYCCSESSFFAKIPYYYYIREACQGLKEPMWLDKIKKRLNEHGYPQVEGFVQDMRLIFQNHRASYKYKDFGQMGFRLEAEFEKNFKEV

BRD2(1) (h) bromodomain = target: T5, BRD2(1) (h) bromodomain (Homo sapiens, UniProt P25440); assay: Epigenetic binding assay, Bromodomain
T5 construct: Bromodomain
T5 sequence (P25440 74-180 limits assumed): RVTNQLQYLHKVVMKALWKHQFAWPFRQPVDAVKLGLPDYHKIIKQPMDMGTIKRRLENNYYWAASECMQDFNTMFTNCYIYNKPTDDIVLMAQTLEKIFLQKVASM

PHF20(1) Tudor domain = target: T6, PHF20(1) Tudor domain (Homo sapiens, UniProt Q9BVI0); assay: Epigenetic binding assay, Tudor domain; details: read-out: % Inhibition of Control Specific Binding
T6 construct: Crystal structures of the Tudor domains of human PHF20; Eurofins CEREP (France), contract laboratory
T6 sequence (Q9BVI0 4-69 limits assumed): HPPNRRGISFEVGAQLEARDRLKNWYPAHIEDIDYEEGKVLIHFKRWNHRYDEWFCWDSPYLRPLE

H3K4 me2 = assay: Cell-based detection methyl modifications; details: read-out: % Inhibition of Control Values
H3K9 ac = assay: Cell-based detection methyl modifications; details: read-out: % Inhibition of Control Values
[1] = target: PKBalpha/AKT1(h) (substrate histone H3 full length) (Homo sapiens, UniProt P31749); assay: Epigenetic enzyme assay, Kinases; assay type: biochemical; details: read-out: % Inhibition of Control Values
Chain of PKBalpha/AKT1(h) (substrate histone H3 full length) (P31749 whole entry): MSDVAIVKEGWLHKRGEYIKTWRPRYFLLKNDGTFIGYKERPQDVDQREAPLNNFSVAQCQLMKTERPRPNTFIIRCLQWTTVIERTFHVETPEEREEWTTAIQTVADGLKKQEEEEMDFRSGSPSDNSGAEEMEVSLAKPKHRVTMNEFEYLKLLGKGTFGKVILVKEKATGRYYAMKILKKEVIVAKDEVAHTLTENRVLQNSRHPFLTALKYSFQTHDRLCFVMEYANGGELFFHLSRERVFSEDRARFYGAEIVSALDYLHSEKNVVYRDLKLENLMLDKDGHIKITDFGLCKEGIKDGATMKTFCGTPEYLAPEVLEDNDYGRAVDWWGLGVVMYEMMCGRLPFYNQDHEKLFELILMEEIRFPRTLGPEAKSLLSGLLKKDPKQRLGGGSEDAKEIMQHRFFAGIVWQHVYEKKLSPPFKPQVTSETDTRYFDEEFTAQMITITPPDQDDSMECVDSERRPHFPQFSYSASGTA

[2] = target: Rsk2(h) (substrate histone H3 full length) (Homo sapiens, UniProt P51812); assay: Epigenetic enzyme assay, Kinases; assay type: biochemical; details: read-out: % Inhibition of Control Values
Chain of Rsk2(h) (substrate histone H3 full length) (P51812 whole entry): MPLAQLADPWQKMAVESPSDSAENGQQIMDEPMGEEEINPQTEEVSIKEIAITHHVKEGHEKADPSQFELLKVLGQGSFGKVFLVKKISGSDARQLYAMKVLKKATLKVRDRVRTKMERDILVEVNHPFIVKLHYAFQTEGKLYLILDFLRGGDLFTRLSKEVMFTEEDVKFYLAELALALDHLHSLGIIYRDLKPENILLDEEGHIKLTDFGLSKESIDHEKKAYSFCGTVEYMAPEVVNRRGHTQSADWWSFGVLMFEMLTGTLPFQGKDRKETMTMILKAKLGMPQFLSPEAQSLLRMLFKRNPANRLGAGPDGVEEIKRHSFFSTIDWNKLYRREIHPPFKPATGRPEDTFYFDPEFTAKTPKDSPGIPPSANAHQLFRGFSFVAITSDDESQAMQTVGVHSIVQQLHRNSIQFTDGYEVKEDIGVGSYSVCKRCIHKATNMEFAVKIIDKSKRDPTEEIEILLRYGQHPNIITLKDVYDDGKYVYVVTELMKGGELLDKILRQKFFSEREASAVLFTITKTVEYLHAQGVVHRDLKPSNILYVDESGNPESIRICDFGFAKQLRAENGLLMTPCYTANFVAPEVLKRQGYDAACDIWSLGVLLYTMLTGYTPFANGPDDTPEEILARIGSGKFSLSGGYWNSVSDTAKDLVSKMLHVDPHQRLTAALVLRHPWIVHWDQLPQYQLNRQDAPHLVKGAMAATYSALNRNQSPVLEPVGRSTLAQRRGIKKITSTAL

Thioredoxin Reductase = target: T7, Thioredoxin Reductase (Escherichia coli, UniProt P0A9P4); assay: Thioredoxin Reductase; assay type: biochemical, E. coli
T7 construct: host or cells: E. coli
T7 sequence (P0A9P4 2-321): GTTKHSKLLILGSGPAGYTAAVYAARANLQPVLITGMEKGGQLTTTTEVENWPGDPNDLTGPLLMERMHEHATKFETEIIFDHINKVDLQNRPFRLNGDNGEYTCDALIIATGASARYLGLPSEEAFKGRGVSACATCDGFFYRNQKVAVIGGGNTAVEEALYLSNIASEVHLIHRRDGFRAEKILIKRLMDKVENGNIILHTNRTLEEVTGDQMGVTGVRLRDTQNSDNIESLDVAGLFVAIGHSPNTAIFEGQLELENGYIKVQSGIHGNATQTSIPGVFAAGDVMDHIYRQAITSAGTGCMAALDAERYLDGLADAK
Experimental: The in vitro pharmacological studies were conducted by Eurofins PanLab (Taiwan) using the parameters shown in Table 13 with respect to appropriate literature references.

[3] = 10 μM, read-out: % Inhibition of Control Values

**Q.** How did the pIC50 (EHMT1 (h); read-out: Reference IC50) turn out when `Nc1ncnc2c1ncn2[C@@H]1O[C@H](CSCC[C@H](N)C(=O)O)[C@@H](O)[C@H]1O` [SAH] was run?
**A.** 6.74

**Q.** And the pIC50 (MLL4(h) complex; read-out: Reference IC50)?
**A.** 6.26

**Q.** And the pIC50 (SUV39H2 (h); read-out: Reference IC50)?
**A.** 4.62

**Q.** How did the pEC50 (SW480) turn out when `CC(C)=CCC[C@H](C)[C@@H]1CC[C@@H](C)c2c1cc(C)c(O)c2O` [Compound 4, 7,8-dihydroxyserrulat-14-ene] was run?
**A.** 4.91

**Q.** What about the GI50 (SW480) of the same compound?
**A.** 12.3 µM

**Q.** And the pIC50 (SW480)?
**A.** 4.91

**Q.** What about the pEC50 (IM-9) of the same compound?
**A.** 5.17

**Q.** What about the GI50 (IM-9) of the same compound?
**A.** 6.71 µM

**Q.** And the pIC50 (IM-9)?
**A.** 5.17

**Q.** What does the source list for `CC(C)=CCC[C@@H]1C(O)Oc2c(C)cc(O)c3c2[C@H]1CC[C@H]3C` (stereo partly shown) [Compound 2, 5,18-epoxyserrulat-14-en-8,18-diol]?
**A.** inhibition at 10 µM (EP300 (h) bromodomain): 37%; inhibition at 10 µM (PB1(4) (h) bromodomain): -3%; inhibition at 10 µM (SP140 (h) bromodomain): 43%; % Inhibition of Control Specific Binding (BRD2(1) (h) bromodomain; 10 μM): significant activity; inhibition at 10 µM (BRD2(1) (h) bromodomain; 10 μM, read-out: % Inhibition of Control Specific Binding): 89%; pIC50 (BRD2(1) (h) bromodomain; Table 9, inhibition/concentration-response curve): 4.66; inhibition at 10 µM (PHF20(1) Tudor domain): 2%; inhibition at 10 µM (H3K4 me2): -1%; inhibition at 10 µM (H3K9 ac): 3%; inhibition at 10 µM (EHMT1 (h); [3]): 9%; % Inhibition of Control Values (MLL4(h) complex; 10 μM): −18%; inhibition at 10 µM (SUV39H2 (h); [3]): -16%; inhibition at 10 µM [1]: -19%; inhibition at 10 µM [2]: 7%; remaining activity at 10 µM (Thioredoxin Reductase; assay year 2014, read-out: % Control Response): 6%; remaining activity at 10 µM (Thioredoxin Reductase; assay year 2015, read-out: % Control Response): 12%; pEC50 (SW480): 5.00; GI50 (SW480): 9.93 µM; pIC50 (SW480): 5.00; pEC50 (IM-9): 5.41; GI50 (IM-9): 3.92 µM; pIC50 (IM-9): 5.41
